Assay results from patent US8461349B2, “Fungicidal active substance combinations containing trifloxystrobin” (Bayer CropScience AG, priority 2001, dated 2013).
Values joined by “and” are separate entries in the source; they are usually repeats but may differ in a detail not shown here. Equal values may be shown once.

How the values were obtained:
Type in all cases: in vivo
[1] = tested on: cotton aphid (Aphis gossypii); experiment: Aphis gossypii test (cotton leaves dipped)
Procedure: (§1) • Solvent: 7 parts by weight of dimethylformamide • Emulsifier: 2 parts by weight of alkylaryl polyglycol ether
To produce a suitable preparation of active compound, 1 part by weight of active compound is mixed with the stated amounts of solvent and emulsifier, and the concentrate is diluted with water to the desired concentrations.
Cotton leaves (Gossypium hirsutum) which are heavily infested by the cotton aphid (Aphis gossypii) are treated by being dipped into the preparation of active compound of the desired concentration.
(§2) After the desired period of time, the kill in % is determined. 100% means that all aphids have been killed; 0% means that none of the aphids have been killed. The kill rates that have been determined are evaluated using Colby's formula.

[2] = tested on: green peach aphid (Myzus persicae); experiment: Myzus test (cabbage leaves dipped)
Procedure: as §1
(§3) To produce a suitable preparation of active compound, 1 part by weight of active compound is mixed with the stated amounts of solvent and emulsifier, and the concentrate is diluted with emulsifier-containing water to the desired concentration.
Cabbage leaves (Brassica oleracea) which are heavily infested by the green peach aphid (Myzus persicae) are treated by being dipped into the preparation of active compound of the desired concentration.
as §2

[3] = tested on: larvae of the mustard beetle (Phaedon cochleariae); experiment: Phaedon larvae test (cabbage leaves dipped)
Procedure: as §1, §3
Cabbage leaves (Brassica oleracea) are treated by being dipped into the preparation of active compound of the desired concentration and are populated with larvae of the mustard beetle (Phaedon cochleariae) while the leaves are still moist.
After the desired period of time, the kill in % is determined. 100% means that all beetle larvae have been killed; 0% means that none of the beetle larvae have been killed. The kill rates that have been determined are evaluated using Colby's formula.

[4] = tested on: caterpillars of the army worm (Spodoptera frugiperda); experiment: Spodoptera frugiperda test (cabbage leaves dipped)
Procedure: as §1, §3
Cabbage leaves (Brassica oleracea) are treated by being dipped into the preparation of active compound of the desired concentration and are populated with caterpillars of the army worm (Spodoptera frugiperda) while the leaves are still moist.
(§4) After the desired period of time, the kill in % is determined. 100% means that all caterpillars have been killed; 0% means that none of the caterpillars have been killed. The kill rates that have been determined are evaluated using Colby's formula.

[5] = tested on: caterpillars of the diamond back moth (Plutella xylostella, sensitive strain); experiment: Plutella test (cabbage leaves dipped)
Procedure: as §1, §3
Cabbage leaves (Brassica oleracea) are treated by being dipped into the preparation of active compound of the desired concentration and are populated with caterpillars of the diamond back moth (Plutella xylostella, sensitive strain) while the leaves are still moist.
as §4

In the case of C/C(=N\C#N)N(C)Cc1ccc(Cl)nc1 [acetamiprid (IV)], the “Kill rate in % after 1^d” value ([1]; 0.16 ppm) is reported as 25%, the “Kill rate in % after 6^d” value ([2]; 0.16 ppm) is reported as 20% and the “Kill rate in % after 3^d” value ([3]; 4 ppm) is reported as 5%. For the same compound, the “Kill rate in % after 3^d” value ([4]; 4 ppm) was 65% and the “Kill rate in % after 3^d” value ([5]; 4 ppm) was 0%.

With CN/C(=N\[N+](=O)[O-])NCc1cnc(Cl)s1 [chlothianidin (VII)] the “Kill rate in % after 6^d” value ([2]; 0.8 ppm) was 95%, the “Kill rate in % after 3^d” value ([3]; 4 ppm) was 30% and the “Kill rate in % after 3^d” value ([4]; 4 ppm) was 85%.

For CN/C(=N\[N+](=O)[O-])NCC1CCOC1 (stereo not shown) [dinotefuran (VIII)], the “Kill rate in % after 6^d” value ([1]; 0.8 ppm) was 0%, the “Kill rate in % after 6^d” value ([2]; 4 ppm) was 0% and the “Kill rate in % after 3^d” value ([3]; 4 ppm) was 5%. For the same compound, the “Kill rate in % after 6^d” value ([4]; 4 ppm) was 70%.

In the case of O=[N+]([O-])/N=C1\NCCN1Cc1ccc(Cl)nc1 [imidacloprid (II), 1-[(6-chloro-3-pyridinyl)methyl]-N-nitro-2-imidazolidineimine], the “Kill rate in % after 6^d” value ([1]; 0.16 ppm) is reported as 25%, the “Kill rate in % after 6^d” value ([2]; 0.16 ppm) is reported as 25% and the “Kill rate in % after 3^d” value ([3]; 4 ppm) is reported as 35%. The “Kill rate in % after 3^d” value ([4]; 4 ppm) was 0%.

In the case of N#C/N=C1\SCCN1Cc1ccc(Cl)nc1 [thiacloprid (III)], the “Kill rate in % after 6^d” value ([1]; 0.8 ppm) is reported as 55%, the “Kill rate in % after 6^d” value ([2]; 0.8 ppm) is reported as 85% and the “Kill rate in % after 3^d” value ([3]; 4 ppm) is reported as 10%. For the same compound, the “Kill rate in % after 3^d” value ([4]; 4 ppm) was 0%.

CON=C(C(=O)OC)c1ccccc1CO/N=C(\C)c1cccc(C(F)(F)F)c1 [trifloxystrobin (I), methyl 2-[α-{[(α-methyl-3-trifluoromethylbenzyl)imino]oxy}-o-tolyl]-glyoxylate O-methyl oxime] was tested, and the “Kill rate in % after 1^d” value ([1]; 4 ppm) was 0%, the “Kill rate in % after 6^d” value ([1]; 4 ppm) was 0% and the “Kill rate in % after 1^d” value ([1]; 20 ppm) was 0%. For the same compound, the “Kill rate in % after 6^d” value ([1]; 20 ppm) was 0%, the “Kill rate in % after 6^d” value ([2]; 4 ppm) was 0% and the “Kill rate in % after 6^d” value ([2]; 20 ppm) was 0%. For the same compound, the “Kill rate in % after 6^d” value ([2]; 100 ppm) was 10%, the “Kill rate in % after 3^d” value ([3]; 100 ppm) was 0% and 5% and the “Kill rate in % after 3^d” value ([4]; 100 ppm) was 0% and 5%. For the same compound, the “Kill rate in % after 6^d” value ([4]; 100 ppm) was 0% and the “Kill rate in % after 3^d” value ([5]; 100 ppm) was 0%.
